In patent publication US12441733B2, “Substituted 2,4-dioxotetrahydropyrimidines as intermediates in the synthesis of bruton's tyrosine kinase inhibitors” (Novartis AG, priority 2018, dated 2025):

Target: T1, BTK(C481S)-GFP (Homo sapiens, UniProt Q06187+Q96SW2, C481S)
T1 construct: CHYSEL (cis-acting hydrolase element, 2A) remnant after GFP; mCherry is split off as a separate protein (C); expressed in transfected cells; host or cells: TMD8 cells, lentiviral transduction with pLenti6-BTK(C481S)-GFP-CHYSEL-mCherry
T1 sequence (Q06187 whole entry C481S): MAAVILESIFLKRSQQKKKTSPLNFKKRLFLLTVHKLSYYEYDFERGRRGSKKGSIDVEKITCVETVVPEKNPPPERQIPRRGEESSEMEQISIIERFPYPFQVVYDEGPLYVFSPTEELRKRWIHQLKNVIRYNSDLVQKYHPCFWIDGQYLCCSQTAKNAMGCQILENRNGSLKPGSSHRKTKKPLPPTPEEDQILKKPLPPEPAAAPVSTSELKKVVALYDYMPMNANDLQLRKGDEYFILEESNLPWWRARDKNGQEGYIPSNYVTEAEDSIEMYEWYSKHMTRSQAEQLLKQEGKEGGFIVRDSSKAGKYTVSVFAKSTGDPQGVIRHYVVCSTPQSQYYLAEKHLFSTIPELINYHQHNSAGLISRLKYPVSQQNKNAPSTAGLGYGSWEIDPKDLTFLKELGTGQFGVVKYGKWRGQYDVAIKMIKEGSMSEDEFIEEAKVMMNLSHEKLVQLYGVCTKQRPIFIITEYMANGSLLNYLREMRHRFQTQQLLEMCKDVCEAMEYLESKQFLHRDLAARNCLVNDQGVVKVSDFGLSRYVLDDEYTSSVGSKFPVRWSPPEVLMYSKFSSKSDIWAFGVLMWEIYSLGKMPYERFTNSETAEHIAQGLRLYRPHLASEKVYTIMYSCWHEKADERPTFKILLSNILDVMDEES
T1 sequence (Q96SW2 whole entry): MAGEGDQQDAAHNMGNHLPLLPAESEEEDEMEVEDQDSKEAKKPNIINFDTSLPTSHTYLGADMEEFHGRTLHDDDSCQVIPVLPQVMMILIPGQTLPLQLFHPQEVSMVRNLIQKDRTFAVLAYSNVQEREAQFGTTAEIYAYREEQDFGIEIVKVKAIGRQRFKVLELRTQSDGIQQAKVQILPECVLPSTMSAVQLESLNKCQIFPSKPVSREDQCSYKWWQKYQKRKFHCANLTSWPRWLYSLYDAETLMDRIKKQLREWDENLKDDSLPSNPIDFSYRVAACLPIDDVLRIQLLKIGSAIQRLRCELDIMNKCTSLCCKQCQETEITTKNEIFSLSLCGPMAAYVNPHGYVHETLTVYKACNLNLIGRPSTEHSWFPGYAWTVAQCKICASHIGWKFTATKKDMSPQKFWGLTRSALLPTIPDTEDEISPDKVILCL
T1 sequence (Q16531 whole entry partner): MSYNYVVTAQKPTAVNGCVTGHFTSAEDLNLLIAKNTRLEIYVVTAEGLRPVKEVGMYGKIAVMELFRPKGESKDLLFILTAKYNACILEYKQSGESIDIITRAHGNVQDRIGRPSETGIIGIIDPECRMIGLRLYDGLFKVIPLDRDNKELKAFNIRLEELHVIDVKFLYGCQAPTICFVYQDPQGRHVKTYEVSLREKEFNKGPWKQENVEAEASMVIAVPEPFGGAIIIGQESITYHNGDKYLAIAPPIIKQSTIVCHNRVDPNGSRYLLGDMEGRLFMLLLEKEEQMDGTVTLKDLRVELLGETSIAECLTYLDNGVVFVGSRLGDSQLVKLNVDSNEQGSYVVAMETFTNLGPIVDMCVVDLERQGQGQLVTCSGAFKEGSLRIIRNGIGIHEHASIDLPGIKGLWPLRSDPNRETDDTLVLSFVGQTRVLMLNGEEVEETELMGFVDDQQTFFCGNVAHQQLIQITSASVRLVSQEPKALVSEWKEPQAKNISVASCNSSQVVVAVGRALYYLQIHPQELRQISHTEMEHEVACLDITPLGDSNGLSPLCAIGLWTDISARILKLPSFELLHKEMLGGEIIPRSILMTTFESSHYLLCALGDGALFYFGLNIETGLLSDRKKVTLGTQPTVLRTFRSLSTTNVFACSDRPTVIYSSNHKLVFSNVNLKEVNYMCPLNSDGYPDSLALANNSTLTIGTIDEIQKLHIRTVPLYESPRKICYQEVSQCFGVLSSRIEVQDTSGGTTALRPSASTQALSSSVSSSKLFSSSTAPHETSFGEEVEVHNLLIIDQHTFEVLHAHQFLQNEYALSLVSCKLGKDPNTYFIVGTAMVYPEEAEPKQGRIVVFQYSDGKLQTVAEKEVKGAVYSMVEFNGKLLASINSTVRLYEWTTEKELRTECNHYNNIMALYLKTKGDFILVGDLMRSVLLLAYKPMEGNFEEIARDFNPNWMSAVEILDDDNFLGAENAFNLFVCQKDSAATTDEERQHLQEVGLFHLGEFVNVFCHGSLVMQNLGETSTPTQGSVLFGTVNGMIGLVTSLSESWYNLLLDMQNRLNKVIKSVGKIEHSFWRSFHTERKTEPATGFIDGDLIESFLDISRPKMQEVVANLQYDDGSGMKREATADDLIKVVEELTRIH
Experiment: BTK(C481S)-GFP protein abundance flow cytometry assay in TMD8 cells
Format: cell-based
Conditions: TMD8 cells expressing BTK(C481S)-GFP; for DC50: GFP signal by flow cytometry; for BTK (C481S) Amax: % protein remaining at maximum degradation
Experimental: Compounds of the invention were tested in the following cellular assays. The terms in Table 2 are defined as follows: DC50 refers to the concentration at which 50% maximal degradation was observed; deg Amax is the extent of degradation and the value refers to the % protein remaining at the concentration at which maximum degradation is seen; ProI GI50 refers to the proliferation data and defines the concentration at which 50% growth inhibition was observed compared to the vehicle treated control at the end of the incubation time. TMD8 cells are BTK dependent and OCI-LY3 cells are BTK independent.
Btk(C481S)-GFP Protein Abundance Flow Cytometry Assay in TMD8 Cells:
Degradation of BTK(C481S) was measured in TMD8 cells expressing BTK(C481S)-GFP and mCherry from a stably integrated second generation bicistronic BTK(C481S)-GFP-CHYSEL-mCherry construct. Reduction of the […] measured by flow cytometry served as readout for BTK(C481S) degradation after degrader treatment.
Cloning of the pLenti6-BTK(C481)-GFP-CHYSEL-mCherry Sensor Vectors
The BTK(C481 S) protein abundance sensor is based on a second generation bicistronic construct, where the 2 reading frames BTK(C481S) and mCherry control are separated by a cis-acting hydrolase element (see: Lo et al., 2015 Cell Reports 13, 2634), replacing the Ires from the first generation vector described before.
The bicistronic BTK(C481S)-GFP-CHYSEL-mCherry construct is based on a pLenti6-DEST vector backbone where a GFP-CHYSEL-mCherry cassette was synthesized and inserted downstream of the DEST cassette by Gibson assembly resulting in the new gateway compatible vector pLenti6-DEST-GFP-CHYSEL-mCherry to allow Gateway cloning with pENTR221-BTK(C48S)(STOP-Leu) to obtain the final sensor construct pLenti6-BTK(C481S)-GFP-CHYSEL-mCherry. The pENTR221-BTK(C481S)(STOP-Leu) was generated by mutating wild-type BTK to BTK(C481S) with a mutagenesis reaction on pENTR221-BTK (STOP-Leu) with the following primers (BTK C481S Quikchange fw, gagtacatggccaatggctCcctcctgaactacctgagg (SEQ ID NO: 7); BTK C481S Quikchange REVC, cctcaggtagttcaggaggGagccattggccatgtactc (SEQ ID NO: 8)) using the QuikChange Lightning mutagenesis kit (Agilent Technologies #210518) performed according to the manufacturer's manual, resulting in pENTR221-BTK(C481S)(STOP-Leu).
Sequence of the synthesized construct (Xho1 sites are shown in bold, mCherry-ORF is shown in small letters):
Engineering of Stably Expressing TMD8 BTK(C481 S-GFP-CHYSEL-mCherry Sensor Cells
TMD8 BTK(C481S)-GFP-CHYSEL-mCherry sensor cells were generated by lentiviral vector transduction using the pLenti6-BTK(C4818)-GFP-CHYSEL-mCherry sensor construct described before. Lentiviral particles were produced in HEK293FT cells (Invitrogen R70007) by co-transfection of 500 ng pLenti6-BTK-GFP-Ires-RFP or pLenti6-IKZF3-GFP-Ires-RFP, 500 ng delta8.71 and 200 ng pVSVG diluted in 100 μl OptiMEM serum free medium (Invitrogen #11058-021) that was mixed after 5 min preincubation with 3 μl of Lipofectamine2000 (Invitrogen #11668-019) in 97 μl OptiMEM serum free medium. The mix was incubated for another 20 min at RT and then added to 1 ml of a freshly prepared suspension of HEK293FT cells in a well of a 6-well plate (concentration 1.2×10^6 cells/ml). 1 day after transfection, the medium was replaced with 1.5 ml of complete growth medium (DMEM high Glucose+10% FCS+1% L-Glutamine+1% NEAA+1% NaPyr.). 48 h post transfection supernatant containing viral transducing particles was collected and frozen at −80° C.
Two days before transduction with viral particles 1×10^5 HEK293A cells (Invitrogen R7057) were seeded in 2 ml growth medium in a well of a 6-well plate. Infection was performed with 90 μl of collected supernatant containing viral transducing particles in 1 ml medium including 8 μg/ml polybrene. 24 h post infection, stably transfected cells were selected with blasticidin at a concentration of 8 μg/ml.

Row | DC50 [nM] | BTK (C481S) Amax [%] | SMILES
1 | 0.72 | 2.4 | Cc1c(NC(=O)c2ccc(C(C)(C)O)cc2F)cc(F)cc1-c1ncnc2[nH]c(-c3ccc(CCN4CCC5(CC4)CCN(C(=O)c4ccc(F)c(N6CCC(=O)NC6=O)c4)CC5)cc3)cc12 [Compound 47, N-(3-(6-(4-(2-(9-(3-(2,4-dioxotetrahydropyrimidin-1(2H)-yl)-4-fluorobenzoyl)-3,9-diazaspiro[5.5]undecan-3-yl)ethyl)phenyl)-7H-pyrrolo[2,3-d]pyrimidin-4-yl)-5-fluoro-2-methylphenyl)-2-fluoro-4-(2-hydroxypropan-2-yl)benzamide]
2 | 0.62 | 2.7 | COc1ccc(C(=O)N2CCC(CN3CCC(Oc4ccc(-c5cc6c(-c7cc(F)cc(NC(=O)c8ccc(C(C)(C)O)cc8F)c7C)ncnc6[nH]5)cc4)CC3)CC2)cc1N1CCC(=O)NC1=O [Compound 19, N-(3-(6-(4-((1-((1-(3-(2,4-Dioxotetrahydropyrimidin-1(2H)-yl)-4-methoxybenzoyl)piperidin-4-yl)methyl)piperidin-4-yl)oxyl)phenyl)-7H-pyrrolo[2,3-d]pyrimidin-4-yl)-5-fluoro-2-methylphenyl)-2-fluoro-4-(2-hydroxypropan-2-yl)benzamide]
3 | 3.03 | 2.9 | COc1ccc(C(=O)N2CCN(CCCCNCc3ccc(-c4cc5c(-c6cc(F)cc(NC(=O)c7ccc(C(C)(C)O)cc7F)c6C)ncnc5[nH]4)cc3)CC2)cc1N1CCC(=O)NC1=O [Compound 40, N-(3-(6-(4-(((4-(4-(3-(2,4-dioxotetrahydropyrimidin-1(2H)-yl)-4-methoxybenzoyl)piperazin-1-yl)butyl)amino)methyl)phenyl)-7H-pyrrolo[2,3-d]pyrimidin-4-yl)-5-fluoro-2-methylphenyl)-2-fluoro-4-(2-hydroxypropan-2-yl)benzamide]
4 | 1.21 | 3.0 | COc1ccc(C(=O)N2CCC3(CCN(CCc4ccc(-c5cc6c(-c7cc(F)cc(NC(=O)c8ccc(C(C)(C)O)cc8F)c7C)ncnc6[nH]5)cc4)CC3)CC2)cc1N1CCC(=O)NC1=O [Compound 31, N-(3-(6-(4-(2-(9-(3-(2,4-Dioxotetrahydropyrimidin-1(2H)-yl)-4-methoxybenzoyl)-3,9-diazaspiro[5.5]undecan-3-yl)ethyl)phenyl)-7H-pyrrolo[2,3-d]pyrimidin-4-yl)-5-fluoro-2-methylphenyl)-2-fluoro-4-(2-hydroxypropan-2-yl)benzamide]
5 | 1.52 | 2.8 | Cc1c(NC(=O)c2ccc(C(C)(C)O)cc2F)cc(F)cc1-c1ncnc2[nH]c(-c3ccc(CN4CCC5(CC4)CCN(C(=O)c4ccc(F)c(N6CCC(=O)NC6=O)c4)CC5)cc3)cc12 [Compound 14, N-(3-(6-(4-((9-(3-(2,4-Dioxotetrahydropyrimidin-1(2H)-yl)-4-fluorobenzoyl)-3,9-diazaspiro[5.5]undecan-3-yl)methyl)phenyl)-7H-pyrrolo[2.3-d]pyrimidin-4-yl)-5-fluoro-2-methylphenyl)-2-fluoro-4-(2-hydroxypropan-2-yl)benzamide]
